Molecular target: T1, DEBS AT3 (Saccharopolyspora erythraea, UniProt Q03132)
T1 sequence (Q03132 460-880 limits assumed): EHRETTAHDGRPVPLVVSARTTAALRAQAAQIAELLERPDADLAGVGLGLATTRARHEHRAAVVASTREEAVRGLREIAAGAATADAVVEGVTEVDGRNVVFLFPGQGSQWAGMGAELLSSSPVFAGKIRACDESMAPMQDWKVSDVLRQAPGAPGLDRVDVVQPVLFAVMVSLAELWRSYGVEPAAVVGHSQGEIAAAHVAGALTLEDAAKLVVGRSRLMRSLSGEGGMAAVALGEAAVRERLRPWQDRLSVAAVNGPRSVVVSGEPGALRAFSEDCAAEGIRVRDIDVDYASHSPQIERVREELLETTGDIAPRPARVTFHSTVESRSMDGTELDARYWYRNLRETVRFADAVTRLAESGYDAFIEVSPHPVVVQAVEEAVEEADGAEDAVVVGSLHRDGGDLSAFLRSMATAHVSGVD
Test: alpha-KGDH coupled fluorometric NADH assay, hydrolysis
Assay type: biochemical
Conditions: no ACP, pH 7.6, 10% glycerol

CC(C(=O)O)C(=O)SCCNC(=O)CCNC(=O)[C@H](O)C(C)(C)COP(=O)(O)OP(=O)(O)OC[C@H]1O[C@@H](n2cnc3c(N)ncnc32)[C@H](O)[C@@H]1OP(=O)(O)O (stereo partly shown) [MMCoA, methylmalonyl-CoA]
alpha-KGDH coupled fluorometric NADH assay, hydrolysis: DEBS AT3 showed the highest rate of hydrolysis with its natural substrate, methylmalonyl-CoA

From article PMC4067149 (Biochemistry, 2014)
